In patent EP4722209A1 (Beijing Shenogen Pharma Group, priority 2023, dated 2024):

biological target: T1, ERα (Homo sapiens, UniProt P03372); assay: ER degradation activity in MCF-7 cells (Western blot, grayscale intensity); assay type: cell-based; conditions: 6 hours treatment, 1 nM to 100 nM, concentration required to degrade 50% of the target protein
T1 construct: host or cells: MCF-7
T1 sequence (P03372 1-595): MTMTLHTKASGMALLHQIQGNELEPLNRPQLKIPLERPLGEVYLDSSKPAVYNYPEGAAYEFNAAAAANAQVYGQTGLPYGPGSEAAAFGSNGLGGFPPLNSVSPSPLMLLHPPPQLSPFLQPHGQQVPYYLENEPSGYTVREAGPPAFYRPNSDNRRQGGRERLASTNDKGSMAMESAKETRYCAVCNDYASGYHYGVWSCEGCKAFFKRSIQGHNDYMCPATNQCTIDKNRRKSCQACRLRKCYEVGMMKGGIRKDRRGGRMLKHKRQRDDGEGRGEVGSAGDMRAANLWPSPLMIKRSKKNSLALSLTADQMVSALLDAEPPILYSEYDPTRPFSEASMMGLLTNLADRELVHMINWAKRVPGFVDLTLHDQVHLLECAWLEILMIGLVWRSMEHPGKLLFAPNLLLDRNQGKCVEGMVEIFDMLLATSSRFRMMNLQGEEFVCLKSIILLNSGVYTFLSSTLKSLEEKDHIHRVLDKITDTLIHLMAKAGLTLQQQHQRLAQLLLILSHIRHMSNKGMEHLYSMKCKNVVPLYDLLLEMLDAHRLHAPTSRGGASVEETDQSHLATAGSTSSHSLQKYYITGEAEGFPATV
Experimental: ERα-positive human breast cancer cells MCF-7 (ATCC, HTB-22) were cultured with EMEM medium (ATCC, catalog number 30-2003) containing 10% fetal bovine serum (Thermo Fisher, catalog number 10099141) and 10 µg/mL bovine insulin in 25 cm^2 or 75 cm^2 plastic tissue culture flasks in a 37 °C incubator with 5% CO2. The cells were passaged 2 to 3 times per week. MCF-7 cells were seeded in 6-well plate at 1×10^6 cells/well with 1.8 mL culture medium per well, and cultured in a 37 °C incubator with 95% air and 5% CO2. After 24 hours, the test compounds were added: the compounds were serially diluted 10-fold in DMSO starting from 10 mM (dissolved in DMSO) to prepare gradient stock solutions. A complete culture medium containing 1% DMSO was prepared for further dilution, temporarily named as the "dilution buffer." Working solutions were prepared by diluting each stock solution with 99 times the volume of dilution buffer, that is, by adding 1 µL of the 10 mM stock solution to 99 µL of the dilution buffer and mixing thoroughly.
Finally, […] of the working solution was added to the cell-seeded culture plate. The final concentration of DMSO in the cell culture medium was 0.2%, and the final concentration of the test compounds ranged from 1 nM to 100 nM. The cells were then incubated at 37 °C for 6 hours.
The culture medium was removed, and the cells were washed twice with ice cold PBS. 1 mL of PBS was added to each well, and the cells were collected into EP tubes using a cell scraper, and centrifuged at 4 °C, 4000 rpm for 5 minutes. PBS was aspirated. Total protein was extracted using the Minute™ Mammalian Tissue/Cell Total Protein Extraction Reagent. The protein concentration was measured using the BCA protein assay kit. 30 µg of protein was taken and mixed with 5× SDS-PAGE loading buffer, boiled for 10 minutes, and cooled. The samples were loaded into wells of a precast gel, with constant voltage at 80 V for 30 minutes, and then the voltage was changed to 120 V after the samples entered the resolving gel. The "sandwich" (sponge - filter paper - gel - membrane - filter paper - sponge) was assembled for Bio-Rad's Transblot. Transfer was performed for 1 hour at 0.3 amp at 4 °C. The sample was blocked with 5% fat-free milk for 1 hour, and incubated with Estrogen Receptor alpha Antibody (Thermo Fisher, catalog number MA5-14104) overnight at 4 °C. The membrane was washed with TBST to remove non-specifically bound antibodies, and then incubated with goat anti-mouse IgG-HRP secondary antibody for 1 hour at room temperature, and was visualized using ECL. The protein degradation level was calculated by measuring the grayscale intensity.
The DC50 values (i.e., the concentration of the test compounds required to degrade 50% of the target protein) were calculated and shown in Table 1. A corresponds to a DC50 value below 10 nM, B corresponds to a DC50 value greater than 10 nM and less than 100 nM, and C corresponds to DC50 values greater than 100 nM. Table 1. The DC50 values of exemplary compounds in MCF-7 cells

| DC50 | SMILES |
| --- | --- |
| > 100 nM | CC1(C)CC(=C(c2ccc(N3CCC4(CC3)CC(N3CCN(c5ccc6c(c5)CN(C5CCC(=O)NC5=O)C6=O)CC3)C4)cc2)c2ccc3[nH]nc(F)c3c2)CC(C)(C)O1 (stereo not drawn) [Compound 62] |
| > 100 nM | CC1(C)CC(=C(c2ccc(N3CC(CN4CCN(c5ccc6c(c5)CN(C5CCC(=O)NC5=O)C6=O)CC4)C3)nc2)c2ccc3[nH]nc(F)c3c2)CC(C)(C)O1 (stereo not drawn) [Compound 40] |
| > 100 nM | CC1(C)CC(=C(c2ccc(OC3CN(C4CCN(c5ccc6c(c5)C(=O)N(C5CCC(=O)NC5=O)C6=O)CC4)C3)cc2)c2ccc3[nH]nc(F)c3c2)CC(C)(C)O1 (stereo not drawn) [Compound 20] |
| < 10 nM | CC1(C)CC(=C(c2ccc(N3CC4(CCN(C5CCN(c6ccc7c(c6)CN([C@@H]6CCC(=O)NC6=O)C7=O)CC5)CC4)C3)nc2)c2ccc3[nH]nc(F)c3c2)CC(C)(C)O1 [Compound 138] |
| < 10 nM | CC1(C)CC(=C(c2ccc(N3CCC(CN4CCN(c5ccc(C(=O)N[C@H]6CCC(=O)NC6=O)cc5)CC4)CC3)nc2)c2ccc3[nH]nc(F)c3c2)CC(C)(C)O1 [Compound 126] |
| > 100 nM | CC1(C)CC(=C(c2ccc(N3CCC(CN4CCN(c5cccc(N6CCC(=O)NC6=O)c5)CC4)CC3)nc2)c2ccc3[nH]nc(F)c3c2)CC(C)(C)O1 [Compound 75] |
| 10 to 100 nM | CC1(C)CC(=C(c2ccc(N3CCC(CN4CCN(c5ccc(N6CCC(=O)NC6=O)cc5)CC4)CC3)cc2)c2ccc3[nH]nc(F)c3c2)CC(C)(C)O1 [Compound 76] |
| > 100 nM | CC1(C)CC(=C(c2ccc(N3CCC4(CC(N5CCN(c6ccc7c(c6)CN(C6CCC(=O)NC6=O)C7=O)CC5)C4)C3)nc2)c2ccc3[nH]nc(F)c3c2)CC(C)(C)O1 (stereo not drawn) [Compound 49] |
| < 10 nM | Cn1nc(N2CCC(=O)NC2=O)c2cc(F)c(N3CCN(C4CC5(CCN(c6ccc(C(=C7CC(C)(C)OC(C)(C)C7)c7ccc8[nH]nc(F)c8c7)cn6)CC5)C4)CC3)cc21 [Compound 125] |
| > 100 nM | CC1(C)CC(=C(c2ccc(N3CCN(C(=O)C4CCN(c5ccc6c(c5)CN(C5CCC(=O)NC5=O)C6=O)CC4)CC3)nc2)c2ccc3[nH]nc(F)c3c2)CC(C)(C)O1 (stereo not drawn) [Compound 65] |
| < 10 nM | CC1(C)CC(=C(c2ccc(N3CCC(CN4CCN(c5ccc6c(c5)CN([C@@H]5CCC(=O)NC5=O)C6=O)CC4)CC3)nc2)c2ccc3[nH]ncc3c2)CC(C)(C)O1 [Compound 136] |
| > 100 nM | CC1(C)CC(=C(c2ccc3[nH]nc(F)c3c2)c2c(F)cc(N3CCN(C4CCN(c5ccc6c(c5)C(=O)N(C5CCC(=O)NC5=O)C6=O)CC4)CC3)cc2F)CC(C)(C)O1 (stereo not drawn) [Compound 10] |
| < 10 nM | CC1(C)CC(=C(c2ccc(N3CCC(CN4CCN(c5cccn6c(N7CCC(=O)NC7=O)cnc56)CC4)CC3)nc2)c2ccc3[nH]nc(F)c3c2)CC(C)(C)O1 [Compound 96, 1-(8-(4-((1-(5-((3-fluoro-1H-indazole-5-yl)(2,2,6,6-tetramethyltetrahydro-4H-pyran-4-ylidene)methyl)pyridin-2-yl)piperidin-4-yl)methyl)piperazin-1-yl)imidazole [1,2-a]pyridin-3-yl)dihydropyrimidine-2,4 (1H, 3H) - dione] |
| < 10 nM | CC1(C)CC(=C(c2ccc(N3CCN(C4CCN(c5ccc6c(c5)C(=O)N(C5CCC(=O)NC5=O)C6=O)CC4)CC3)nc2)c2ccc3[nH]nc(F)c3c2)CC(C)(C)O1 (stereo not drawn) [Compound 105] |

| SMILES | DC50 |
| --- | --- |
| CC1(C)CC(=C(c2ccc(N3CCN(C4CCN(c5cccc(NC6CCC(=O)NC6=O)c5)CC4)CC3)cc2)c2ccc3[nH]ncc3c2)CC(C)(C)O1 (stereo not drawn) [Compound 108] | > 100 nM |
| CC1(C)CC(=C(c2ccc(N3CCN(C[C@@H]4[C@H]5CN(c6ccc7c(c6)CN(C6CCC(=O)NC6=O)C7=O)C[C@@H]45)CC3)nc2)c2ccc3[nH]nc(F)c3c2)CC(C)(C)O1 (stereo partly drawn) [Compound 52] | > 100 nM |
| CC1(C)CC(=C(c2ccc(N3CC4(CCC(N5CCN(c6ccc7c(c6)CN(C6CCC(=O)NC6=O)C7=O)CC5)CC4)C3)nc2)c2ccc3[nH]nc(F)c3c2)CC(C)(C)O1 (stereo not drawn) [Compound 109] | < 10 nM |
| CC1(C)CC(=C(c2ccc(OC3CN(CC4CCN(c5ccc6c(c5)C(=O)N(C5CCC(=O)NC5=O)C6=O)CC4)C3)nc2)c2ccc3[nH]nc(F)c3c2)CC(C)(C)O1 (stereo not drawn) [Compound 7] | 10 to 100 nM |
